# In paper PMC7311426, “An amphipathic peptide with antibiotic activity against multidrug-resistant Gram-negative bacteria” (Nature Communications, 2020):
# Read-outs that look alike come from different tables or passages of the source. Residues, ends and D or L forms follow the SMILES beside them.
# Tests used:
# E. coli DSA 443 ESBL = assay: Murine urinary tract infection (UTI) model; format: in vivo, E. coli in OF-1 mice; settings: Prism column statistics
# Procedure: Peritonitis and UTI murine models were performed at the Department of Microbiology & Infection Control, Statens Serum Institute, Copenhagen, Denmark, under approval by the National Committee of Animal Ethics, Denmark, and adhered to the standards of EU Directive 2010/63/EU. The mouse pneumonia model was performed by Evotec Ltd, United Kingdom, under UK Home Office Licenses and with local ethical committee clearance. All animal studies were contracted by Adenium Biotech ApS.
# Peptides were prepared in Ringer’s acetate pH 6.0 (vehicle) at 34 mg mL^−1. Comparator antibiotics included meropenem (Meronem®, AstraZeneca), polymyxin B sulfate (Sigma) and tobramycin (Novartis).
# The E. coli UTI in vivo model was prepared using an E. coli DSA 443 ESBL strain, in neutropenic outbred OF-1 female mice (Charles River, France). Starting 4 days before inoculation mice were given drinking water with 5% glucose. On day 0 mice were anaesthetized and inoculated with 50 μL bacterial suspension (1 × 10^9 CFU mL^−1) of E. coli DSA 443 ESBL, via a catheter in the urethra into the bladder. On days 1 and 2, mice were treated i.v. with vehicle (n = 18) or with twice-daily administrations of 5 mg kg^−1 AA139 (n = 12) or 40 mg kg^−1 meropenem (n = 12). Urine samples were taken on days 1–3 and on day 3 mice were killed and urine, kidneys, and bladder were collected for CFU counts on agar.
# E. coli ATCC 25922 = assay: NPN uptake assay, outer membrane permeabilization; format: cell-based, Escherichia coli; settings: Prism nonlinear fit, One site - specific binding with Hill slope, Bmax = 100
# [1] = system: E. coli (AID#172 & ATCC 25922); settings: E. coli ATCC 25922; quality control range printed beside agar dilution MIC; cited from earlier work
# Description: Supplement 41467_2020_16950_MOESM9_ESM.xlsx, sheet "Supp table 9" | column: Agar (Noble) Dilution MIC Results for AA139 and Comparators
# E. coli K12 MG1655 = assay: ATP release, BacTiter-Glo luminescence; format: cell-based, Escherichia coli; settings: 60 min
# Procedure: ATP was measured using the BacTiter-Glo^TM Microbial Cell Viability Assay (Promega) following the manufacturer’s instructions. The assay was performed for three biological replicates at 37 °C, with luminescence recorded using a Tecan Infinite M1000 Pro plate reader. The fold reduction of ATP was calculated as: Fold reduction ATP = 1 − (Ltreat − Lmedia/Lcontrol − Lmedia); where Ltreat is the luminescence of treated cells, Lmedia is the luminescence of CAMHB without cells, and Lcontrol is the luminescence of untreated cells. Resultant graphs show mean (n = 7) and std error for each data point, prepared in Prism 8. DMSO was included as a control as piperacillin was solubilized in DMSO, with final assay concentration of 2.5%.
# [2] = mouse IP
# C. albicans = assay: microbe, parasite or virus in culture
# C. neoformans = assay: microbe, parasite or virus in culture
molecule,measurement,setting,value
"C[C@@H](O)[C@H]1C(=O)N2C(C(=O)O)=C(S[C@@H]3CN[C@H](C(=O)N(C)C)C3)[C@H](C)[C@H]12 [Meropenem, meropenem, reference compound]","DAY 3 BLADDER, Median","E. coli DSA 443 ESBL; ESBL E. coli DSA 443, Meropenem 40 mg kg-1, bladder, median of n = 12",3.32
same,"DAY 3 KIDNEY, Mean","E. coli DSA 443 ESBL; ESBL E. coli DSA 443, Meropenem 40 mg kg-1, kidney, mean of n = 12",1.644
same,"DAY 3 KIDNEY, Median","E. coli DSA 443 ESBL; ESBL E. coli DSA 443, Meropenem 40 mg kg-1, kidney, median of n = 12",1.4
same,"DAY 3 URINE, Mean","E. coli DSA 443 ESBL; ESBL E. coli DSA 443, Meropenem 40 mg kg-1, urine, mean of n = 11",1.229
same,"DAY 3 URINE, Median","E. coli DSA 443 ESBL; ESBL E. coli DSA 443, Meropenem 40 mg kg-1, urine, median of n = 11",1
same,"h (Hill slope, best-fit value)",E. coli ATCC 25922,0.3497
"C[C@H]1COc2c(N3CCN(C)CC3)c(F)cc3c(=O)c(C(=O)O)cn1c23 [LEV, levofloxacin, reference compound]",MIC QC range,[1],8 to 60 ng/mL
colistin,Concentration at which maximum ATP release is reached,E. coli K12 MG1655,at its MIC
"CC(C)[C@@H]1NC(=O)[C@H](Cc2ccc(O)cc2)NC(=O)[C@H](Cc2c[nH]c3ccccc23)NC(=O)[C@@H](NC(=O)[C@H](Cc2ccccc2)NC(=O)CN)CSSC[C@@H](C(=O)N[C@@H](CC(N)=O)C(=O)O)NC(=O)[C@H](CCCNC(=N)N)NC(=O)[C@H](CCCNC(=N)N)NC(=O)[C@H](Cc2ccc(O)cc2)NC(=O)[C@@H]2CSSC[C@H](NC1=O)C(=O)N[C@@H](C)C(=O)N[C@@H](CCCNC(=N)N)C(=O)N[C@@H](CCCNC(=N)N)C(=O)N[C@@H](CC(N)=O)C(=O)NCC(=O)N[C@@H](C)C(=O)N[C@@H](CCCNC(=N)N)C(=O)N[C@@H](C(C)C)C(=O)N2 [AA139] (HELM PEPTIDE1{G.F.C.W.Y.V.C.A.R.R.N.G.A.R.V.C.Y.R.R.C.N}$PEPTIDE1,PEPTIDE1,3:R3-20:R3|PEPTIDE1,PEPTIDE1,7:R3-16:R3$$$V2.0)","Cross species PK, concentration (Fig 6 source data)","[2]; time 0.08 h, replicate 1",6190
same,"Cross species PK, concentration (Fig 6 source data)","[2]; time 0.08 h, replicate 3",3520
same,"Cross species PK, concentration (Fig 6 source data)","[2]; time 0.5 h, replicate 1",5370
same,"Cross species PK, concentration (Fig 6 source data)","[2]; time 0.5 h, replicate 2",4790
same,"Cross species PK, concentration (Fig 6 source data)","[2]; time 0.5 h, replicate 3",6580
same,BMD MIC,C. albicans,≥32 µg/mL
same,BMD MIC,C. albicans; 24 h,64 µg/mL
same,BMD MIC,C. neoformans,1 µg/mL
same,MIC against Cryptococcus neoformans,C. neoformans,1 to 4 µg/mL
